According to patent US20260027116A1, “Methods of Treating Chronic Graft-Versus-Host Disease Following Allogeneic Hematopoietic Stem Cell Transplantation” (Kadmon Corporation, LLC, priority 2022, published 2026):

Test system: lung function
Test: Example 1: percent predicted FEV1 change from baseline
Assay type: in vivo, human
Procedure: Change From Baseline in Percent Predicted Forced Expiratory Volume in 1 Second (FEV1) at Each Specified Time Points. FEV1 was the volume of air exhaled from the lungs in the first second of a forced expiration as measured by spirometer. Baseline value was defined as valid and last non-missing value obtained within 28 days prior to participant receiving first study medication. EOT visit was performed within 3 days after the participant's last dose of study drug. […] Analysis was performed on mITT population. Here, ‘number analyzed’=participants with available data for each specified category. Here, ‘O’ in the number analyzed field signifies that none of the participants were available for the analysis at the specified time points.

`CC(C)NC(=O)COc1cccc(-c2nc(Nc3ccc4[nH]ncc4c3)c3ccccc3n2)c1` [Belumosudil, 2-{3-[4-(1H-indazol-5-ylamino)-2-quinazolinyl]phenoxy}-N-(propan-2-yl) acetamide] was tested, and the “Change From Baseline in Percent Predicted Forced Expiratory Volume in 1 Second (FEV1), Mean (Standard Deviation)” value (Cohort 2: 200 mg BID, Cycle 9, Day 1) was −5.9 (11.7) percent predicted FEV1, the “Change From Baseline in Percent Predicted Forced Expiratory Volume in 1 Second (FEV1), Mean (Standard Deviation)” value (Cohort 2: 200 mg BID, Cycle 10, Day 1) was −6.0 (8.5) percent predicted FEV1 and the “Change From Baseline in Percent Predicted Forced Expiratory Volume in 1 Second (FEV1), Mean (Standard Deviation)” value (Cohort 2: 200 mg BID, Cycle 11, Day 1) was −4.0 (8.5) percent predicted FEV1. For the same compound, the “Change From Baseline in Percent Predicted Forced Expiratory Volume in 1 Second (FEV1), Mean (Standard Deviation)” value (Cohort 2: 200 mg BID, Cycle 12, Day 1) was −1.0 (—) percent predicted FEV1, the “Change From Baseline in Percent Predicted Forced Expiratory Volume in 1 Second (FEV1), Mean (Standard Deviation)” value (Cohort 2: 200 mg BID, Cycle 13, Day 1) was −2.5 (14.7) percent predicted FEV1 and the “Change From Baseline in Percent Predicted Forced Expiratory Volume in 1 Second (FEV1), Mean (Standard Deviation)” value (Cohort 2: 200 mg BID, Cycle 14, Day 1) was 0.0 (—) percent predicted FEV1. For the same compound, the “Change From Baseline in Percent Predicted Forced Expiratory Volume in 1 Second (FEV1), Mean (Standard Deviation)” value (Cohort 2: 200 mg BID, Cycle 15, Day 1) was −2.3 (5.1) percent predicted FEV1, the “Change From Baseline in Percent Predicted Forced Expiratory Volume in 1 Second (FEV1), Mean (Standard Deviation)” value (Cohort 2: 200 mg BID, Cycle 16, Day 1) was −8.0 (15.6) percent predicted FEV1 and the “Change From Baseline in Percent Predicted Forced Expiratory Volume in 1 Second (FEV1), Mean (Standard Deviation)” value (Cohort 2: 200 mg BID, Cycle 17, Day 1) was −6.0 (7.2) percent predicted FEV1. For the same compound, the “Change From Baseline in Percent Predicted Forced Expiratory Volume in 1 Second (FEV1), Mean (Standard Deviation)” value (Cohort 2: 200 mg BID, Cycle 18, Day 1) was −7.5 (10.6) percent predicted FEV1, the “Change From Baseline in Percent Predicted Forced Expiratory Volume in 1 Second (FEV1), Mean (Standard Deviation)” value (Cohort 2: 200 mg BID, Cycle 19, Day 1) was −6.3 (5.5) percent predicted FEV1 and the “Change From Baseline in Percent Predicted Forced Expiratory Volume in 1 Second (FEV1), Mean (Standard Deviation)” value (Cohort 2: 200 mg BID, Cycle 25, Day 1) was −12.5 (3.5) percent predicted FEV1. The “Change From Baseline in Percent Predicted Forced Expiratory Volume in 1 Second (FEV1), Mean (Standard Deviation)” value (Cohort 2: 200 mg BID, Cycle 27, Day 1) was −17.0 (9.9) percent predicted FEV1, the “Change From Baseline in Percent Predicted Forced Expiratory Volume in 1 Second (FEV1), Mean (Standard Deviation)” value (Cohort 2: 200 mg BID, Cycle 29, Day 1) was 17.0 (11.3) percent predicted FEV1 and the “Change From Baseline in Percent Predicted Forced Expiratory Volume in 1 Second (FEV1), Mean (Standard Deviation)” value (Cohort 2: 200 mg BID, Cycle 31, Day 1) was −19.5 (10.6) percent predicted FEV1. For the same compound, the “Change From Baseline in Percent Predicted Forced Expiratory Volume in 1 Second (FEV1), Mean (Standard Deviation)” value (Cohort 2: 200 mg BID, Cycle 33, Day 1) was −1.0 (33.9) percent predicted FEV1, the “Change From Baseline in Percent Predicted Forced Expiratory Volume in 1 Second (FEV1), Mean (Standard Deviation)” value (Cohort 2: 200 mg BID, Cycle 35, Day 1) was −2.5 (30.4) percent predicted FEV1 and the “Change From Baseline in Percent Predicted Forced Expiratory Volume in 1 Second (FEV1), Mean (Standard Deviation)” value (Cohort 2: 200 mg BID, Cycle 37, Day 1) was −22.0 (—) percent predicted FEV1. For the same compound, the “Change From Baseline in Percent Predicted Forced Expiratory Volume in 1 Second (FEV1), Mean (Standard Deviation)” value (Cohort 2: 200 mg BID, Cycle 39, Day 1) was −23.0 (11.3) percent predicted FEV1, the “Change From Baseline in Percent Predicted Forced Expiratory Volume in 1 Second (FEV1), Mean (Standard Deviation)” value (Cohort 2: 200 mg BID, Cycle 43, Day 1) was −21.0 (—) percent predicted FEV1 and the “Change From Baseline in Percent Predicted Forced Expiratory Volume in 1 Second (FEV1), Mean (Standard Deviation)” value (Cohort 2: 200 mg BID, EOT) was −10.1 (15.7) percent predicted FEV1. The “Change From Baseline in Percent Predicted Forced Expiratory Volume in 1 Second (FEV1), Mean (Standard Deviation)” value (Cohort 3: 400 mg QD, Cycle 2, Day 1) was −4.8 (6.7) percent predicted FEV1, the “Change From Baseline in Percent Predicted Forced Expiratory Volume in 1 Second (FEV1), Mean (Standard Deviation)” value (Cohort 3: 400 mg QD, Cycle 3, Day 1) was −1.5 (6.2) percent predicted FEV1 and the “Change From Baseline in Percent Predicted Forced Expiratory Volume in 1 Second (FEV1), Mean (Standard Deviation)” value (Cohort 3: 400 mg QD, Cycle 4, Day 1) was −0.2 (8.4) percent predicted FEV1. For the same compound, the “Change From Baseline in Percent Predicted Forced Expiratory Volume in 1 Second (FEV1), Mean (Standard Deviation)” value (Cohort 3: 400 mg QD, Cycle 5, Day 1) was 0.5 (5.9) percent predicted FEV1, the “Change From Baseline in Percent Predicted Forced Expiratory Volume in 1 Second (FEV1), Mean (Standard Deviation)” value (Cohort 3: 400 mg QD, Cycle 6, Day 1) was −0.9 (6.4) percent predicted FEV1 and the “Change From Baseline in Percent Predicted Forced Expiratory Volume in 1 Second (FEV1), Mean (Standard Deviation)” value (Cohort 3: 400 mg QD, Cycle 7, Day 1) was −0.9 (11.8) percent predicted FEV1. For the same compound, the “Change From Baseline in Percent Predicted Forced Expiratory Volume in 1 Second (FEV1), Mean (Standard Deviation)” value (Cohort 3: 400 mg QD, Cycle 8, Day 1) was −1.1 (8.0) percent predicted FEV1, the “Change From Baseline in Percent Predicted Forced Expiratory Volume in 1 Second (FEV1), Mean (Standard Deviation)” value (Cohort 3: 400 mg QD, Cycle 9, Day 1) was −3.0 (11.8) percent predicted FEV1 and the “Change From Baseline in Percent Predicted Forced Expiratory Volume in 1 Second (FEV1), Mean (Standard Deviation)” value (Cohort 3: 400 mg QD, Cycle 10, Day 1) was 2.7 (3.9) percent predicted FEV1. For the same compound, the “Change From Baseline in Percent Predicted Forced Expiratory Volume in 1 Second (FEV1), Mean (Standard Deviation)” value (Cohort 3: 400 mg QD, Cycle 11, Day 1) was −4.4 (15.8) percent predicted FEV1, the “Change From Baseline in Percent Predicted Forced Expiratory Volume in 1 Second (FEV1), Mean (Standard Deviation)” value (Cohort 3: 400 mg QD, Cycle 12, Day 1) was 0.3 (3.6) percent predicted FEV1 and the “Change From Baseline in Percent Predicted Forced Expiratory Volume in 1 Second (FEV1), Mean (Standard Deviation)” value (Cohort 3: 400 mg QD, Cycle 13, Day 1) was −3.5 (13.2) percent predicted FEV1. For the same compound, the “Change From Baseline in Percent Predicted Forced Expiratory Volume in 1 Second (FEV1), Mean (Standard Deviation)” value (Cohort 3: 400 mg QD, Cycle 14, Day 1) was −5.1 (9.1) percent predicted FEV1, the “Change From Baseline in Percent Predicted Forced Expiratory Volume in 1 Second (FEV1), Mean (Standard Deviation)” value (Cohort 3: 400 mg QD, Cycle 15, Day 1) was −6.1 (12.6) percent predicted FEV1 and the “Change From Baseline in Percent Predicted Forced Expiratory Volume in 1 Second (FEV1), Mean (Standard Deviation)” value (Cohort 3: 400 mg QD, Cycle 16, Day 1) was −4.5 (7.3) percent predicted FEV1. The “Change From Baseline in Percent Predicted Forced Expiratory Volume in 1 Second (FEV1), Mean (Standard Deviation)” value (Cohort 3: 400 mg QD, Cycle 17, Day 1) was −7.9 (15.5) percent predicted FEV1, the “Change From Baseline in Percent Predicted Forced Expiratory Volume in 1 Second (FEV1), Mean (Standard Deviation)” value (Cohort 3: 400 mg QD, Cycle 18, Day 1) was 4.0 (6.0) percent predicted FEV1 and the “Change From Baseline in Percent Predicted Forced Expiratory Volume in 1 Second (FEV1), Mean (Standard Deviation)” value (Cohort 3: 400 mg QD, Cycle 19, Day 1) was 0.5 (8.5) percent predicted FEV1. For the same compound, the “Change From Baseline in Percent Predicted Forced Expiratory Volume in 1 Second (FEV1), Mean (Standard Deviation)” value (Cohort 3: 400 mg QD, Cycle 25, Day 1) was −5.0 (11.4) percent predicted FEV1, the “Change From Baseline in Percent Predicted Forced Expiratory Volume in 1 Second (FEV1), Mean (Standard Deviation)” value (Cohort 3: 400 mg QD, Cycle 27, Day 1) was −10.0 (17.0) percent predicted FEV1 and the “Change From Baseline in Percent Predicted Forced Expiratory Volume in 1 Second (FEV1), Mean (Standard Deviation)” value (Cohort 3: 400 mg QD, Cycle 29, Day 1) was 0.0 (1.4) percent predicted FEV1. For the same compound, the “Change From Baseline in Percent Predicted Forced Expiratory Volume in 1 Second (FEV1), Mean (Standard Deviation)” value (Cohort 3: 400 mg QD, Cycle 31, Day 1) was −4.0 (—) percent predicted FEV1, the “Change From Baseline in Percent Predicted Forced Expiratory Volume in 1 Second (FEV1), Mean (Standard Deviation)” value (Cohort 3: 400 mg QD, Cycle 35, Day 1) was −4.0 (—) percent predicted FEV1 and the “Change From Baseline in Percent Predicted Forced Expiratory Volume in 1 Second (FEV1), Mean (Standard Deviation)” value (Cohort 3: 400 mg QD, Cycle 36, Day 1) was 5.0 (—) percent predicted FEV1. The “Change From Baseline in Percent Predicted Forced Expiratory Volume in 1 Second (FEV1), Mean (Standard Deviation)” value (Cohort 3: 400 mg QD, Cycle 39, Day 1) was −5.0 (—) percent predicted FEV1, the “Change From Baseline in Percent Predicted Forced Expiratory Volume in 1 Second (FEV1), Mean (Standard Deviation)” value (Cohort 3: 400 mg QD, Cycle 43, Day 1) was −7.0 (—) percent predicted FEV1 and the “Change From Baseline in Percent Predicted Forced Expiratory Volume in 1 Second (FEV1), Mean (Standard Deviation)” value (Cohort 3: 400 mg QD, Cycle 47, Day 1) was −5.0 (—) percent predicted FEV1. For the same compound, the “Change From Baseline in Percent Predicted Forced Expiratory Volume in 1 Second (FEV1), Mean (Standard Deviation)” value (Cohort 3: 400 mg QD, Cycle 49, Day 1) was −2.0 (—) percent predicted FEV1 and the “Change From Baseline in Percent Predicted Forced Expiratory Volume in 1 Second (FEV1), Mean (Standard Deviation)” value (Cohort 3: 400 mg QD, EOT) was −7.4 (14.9) percent predicted FEV1.
